Structures can show the parent of a compound that is named as a salt. Where two headings read alike, the source gives them in different places.
Legend:
rat PMNs = assay: Inhibition of priming of rat PMN (PMA + rrIFN-γ or rHuIL-1), Superoxide Anion (O2-) assay; assay type: cell-based; conditions: PMA 200 ηg/mL, compound 0 to 1000 µM, superoxide anion readout
Procedure: The rat air pouch model of inflammation was used to obtain rat PMNs using 25ηg/pouch of recombinant human interleukin-1 (rHuIL-1) to elicit the cells essentially according to the method of Esser et al. [Internat. J. Tissue Reactions XI, 291 (1989)]. PMNs were incubated along with phorbol myristate acetate (PMA)(200ηg/mL), which acts as a soluble stimulus, and rrIFN-γ (1000 Units/mL), which acts as a stimulatory lymphokine, or rHuIL-1 (500 Units/mL), which acts as a stimulatory cytokine, in the presence of various concentrations of (1S,3R)-Cis-1(9-adenyl)-3-hydroxycyclopentane (0 to 1000 µM). The degree of macrophage priming was measured using the Superoxide Anion (O2-) assay as described by Edwards et al. [Science 239, 769 (1988)].

[1] = tested on: Rat peritoneal macrophages; assay: Inhibition of priming of rat peritoneal macrophages (opsonized zymosan + rrIFN-γ), Superoxide Anion (O2-) assay; assay type: cell-based; conditions: opsonized zymosan 3 mg/mL, rrIFN-γ 1000 Units/mL; compound 0 to 1000 µM; superoxide anion readout; read-out: IC50 (inhibits the priming of rat macrophages in vitro)
Procedure: Rat peritoneal macrophages were isolated and grown in cell culture essentially as described by Edwards et al. [Science 239, 769 (1988)]. Macrophages were incubated along with opsonized zymosan (3 mg/mL), which acts as a particulate stimulus, and recombinant rat γ-interferon (rrIFN-y)(1000Units/mL), which acts as an activating lymphokine, in the presence of various concentrations of (1S,3R)-Cis-l(9-adenyl)-3-hydroxycyclopentane (0 to 1000µM). The degree of macrophage priming was measured using the Superoxide Anion (O2-) assay as described by Edwards et al. [Science 239, 769 (1988)].

IC50 (rat PMNs; rHuIL-1 500 Units/mL, read-out: IC50 (inhibits the rHuIL-1 priming of rat PMN in vitro)) | IC50 (rat PMNs; rrIFN-γ 1000 Units/mL, read-out: IC50 (inhibits the rrIFN-γ priming of rat PMN in vitro)) | IC50 [1] | Compound
1 nM | 1 nM | – | Nc1ncnc2c1ncn2[C@H]1CC[C@@H](O)C1 [(1S,3R)-Cis-1-(9-adenyl)-3-hydroxycyclopentane hydrochloride]
– | – | 2500 nM | (1S,3R)-Cis-l(9-adenyl)-3-hydroxy-4-cyclopentene
